This series in a line: xn = mol fraction of the nth substance listed. Conditions: 101 kPa.

The values that follow come from a compilation of properties of binary mixtures (doi:10.1016/j.molliq.2015.11.032).

SMILES strings stand for the structures.

With `C[P+](c1ccccc1)(c1ccccc1)c1ccccc1.[Br-]` + OCC(O)CO, the viscosity is, setting by setting: (296.97 K, x2 = 0.75) 2771 mPa·s; (301.89 K, x2 = 0.75) 1657 mPa·s; (306.95 K, x2 = 0.75) 1002.8 mPa·s; (312 K, x2 = 0.75) 612 mPa·s; (317.18 K, x2 = 0.75) 382 mPa·s; (353.18 K, x2 = 0.75) 59.5 mPa·s.
For `[Cl-].c1ccc(C[P+](c2ccccc2)(c2ccccc2)c2ccccc2)cc1` + OCC(O)CO, the viscosity reads like this: (296.84 K, x2 = 0.9412) 1359.8 mPa·s; (301.89 K, x2 = 0.9412) 943 mPa·s; (312.13 K, x2 = 0.9412) 459 mPa·s; (317.31 K, x2 = 0.9412) 306 mPa·s; (332.72 K, x2 = 0.9412) 110.5 mPa·s; (353.18 K, x2 = 0.9412) 59.49 mPa·s. The molecule further yielded an electrical conductivity (298.1 K, x2 = 0.9412) of 0.007 S/m; an electrical conductivity (313.32 K, x2 = 0.9412) of 0.0174 S/m; an electrical conductivity (328.03 K, x2 = 0.9412) of 0.0419 S/m.
